One experiment deals with T1, ACOX1 (Homo sapiens, UniProt Q15067).
T1 construct: endogenous in cells
T1 sequence (Q15067 1-660): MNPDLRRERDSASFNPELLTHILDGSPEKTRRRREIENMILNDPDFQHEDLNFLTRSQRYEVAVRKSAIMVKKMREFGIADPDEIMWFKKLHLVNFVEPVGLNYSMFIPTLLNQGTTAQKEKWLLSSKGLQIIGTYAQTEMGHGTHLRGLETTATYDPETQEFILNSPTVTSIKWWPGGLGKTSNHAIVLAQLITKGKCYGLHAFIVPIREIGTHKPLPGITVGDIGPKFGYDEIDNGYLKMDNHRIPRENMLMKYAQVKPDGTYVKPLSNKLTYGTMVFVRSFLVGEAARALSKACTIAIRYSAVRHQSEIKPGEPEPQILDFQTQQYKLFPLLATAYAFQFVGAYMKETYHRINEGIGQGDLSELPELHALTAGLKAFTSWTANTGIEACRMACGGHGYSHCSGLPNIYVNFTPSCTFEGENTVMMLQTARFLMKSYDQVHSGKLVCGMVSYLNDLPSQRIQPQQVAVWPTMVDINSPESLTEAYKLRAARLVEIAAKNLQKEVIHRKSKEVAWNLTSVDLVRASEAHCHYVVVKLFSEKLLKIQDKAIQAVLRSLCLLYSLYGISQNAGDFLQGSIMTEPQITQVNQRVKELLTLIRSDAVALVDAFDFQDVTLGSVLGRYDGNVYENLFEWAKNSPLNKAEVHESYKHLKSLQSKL
The experiment can be described thus: Kinobeads two-dose competition binding: ACOX1.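 Further: competition of compounds with immobilized broad-spectrum kinase inhibitor beads in cell lysate at 100 and 1,000 nM, 45 min at 4 °C, bead-bound protein quantified by label-free MS versus DMSO.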 The settings on record: sheet CATDS matrix 2; Gene Name ACOX1.

The target of a further experiment is T2, AAK1 (Homo sapiens, UniProt Q2M2I8).
T2 construct: to maximize the representation of endogenous proteins; endogenous in cells
The experiment is described as follows: Kinobeads two-dose competition binding: AAK1.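 Further: kinobeads competition pulldown from cell lysate, compound preincubated 45 min at 4 °C, bead-bound protein measured by label-free mass spectrometry against DMSO vehicle control.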 The settings on record: sheet CATDS matrix 2; Gene Name AAK1.

The target in another experiment is ABL1 (Homo sapiens, UniProt P00519). The experiment can be described thus: Kinobeads two-dose competition binding: ABL1. The settings on record: sheet CATDS matrix 2; Gene Name ABL1.
A further experiment has as its target T3, ABL2 (Homo sapiens, UniProt P42684).
T3 construct: endogenous in cells
The experiment is described as follows: Kinobeads two-dose competition binding: ABL2. The settings on record: sheet CATDS matrix 2; Gene Name ABL2.

Another experiment has as its target T4, ACAD11 (Homo sapiens, UniProt Q709F0).
T4 construct: endogenous in cells
T4 sequence (Q709F0 1-780): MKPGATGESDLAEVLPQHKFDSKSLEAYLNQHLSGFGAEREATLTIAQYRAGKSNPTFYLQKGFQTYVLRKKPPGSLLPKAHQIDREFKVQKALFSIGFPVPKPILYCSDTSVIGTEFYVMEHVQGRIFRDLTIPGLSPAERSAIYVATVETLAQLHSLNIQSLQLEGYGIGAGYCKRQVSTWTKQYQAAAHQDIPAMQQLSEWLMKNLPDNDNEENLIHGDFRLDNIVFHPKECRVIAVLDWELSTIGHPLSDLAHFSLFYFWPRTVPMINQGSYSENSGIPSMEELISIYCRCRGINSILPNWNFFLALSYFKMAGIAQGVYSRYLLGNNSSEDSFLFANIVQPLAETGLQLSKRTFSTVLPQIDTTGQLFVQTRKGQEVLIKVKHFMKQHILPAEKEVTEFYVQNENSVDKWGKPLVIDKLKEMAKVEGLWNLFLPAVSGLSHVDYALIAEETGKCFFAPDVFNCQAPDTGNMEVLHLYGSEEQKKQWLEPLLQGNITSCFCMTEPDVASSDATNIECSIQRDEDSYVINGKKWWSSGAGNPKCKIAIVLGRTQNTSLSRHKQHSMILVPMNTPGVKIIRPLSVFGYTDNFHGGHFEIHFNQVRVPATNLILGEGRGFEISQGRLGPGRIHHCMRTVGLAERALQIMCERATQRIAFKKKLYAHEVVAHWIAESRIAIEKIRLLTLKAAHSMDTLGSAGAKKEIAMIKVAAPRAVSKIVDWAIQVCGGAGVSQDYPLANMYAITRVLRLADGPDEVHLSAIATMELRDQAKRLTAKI
The experiment can be described thus: Kinobeads two-dose competition binding: ACAD11. The settings on record: sheet CATDS matrix 2; Gene Name ACAD11.

ABL1, sequence (P00519 28-1130 limits assumed): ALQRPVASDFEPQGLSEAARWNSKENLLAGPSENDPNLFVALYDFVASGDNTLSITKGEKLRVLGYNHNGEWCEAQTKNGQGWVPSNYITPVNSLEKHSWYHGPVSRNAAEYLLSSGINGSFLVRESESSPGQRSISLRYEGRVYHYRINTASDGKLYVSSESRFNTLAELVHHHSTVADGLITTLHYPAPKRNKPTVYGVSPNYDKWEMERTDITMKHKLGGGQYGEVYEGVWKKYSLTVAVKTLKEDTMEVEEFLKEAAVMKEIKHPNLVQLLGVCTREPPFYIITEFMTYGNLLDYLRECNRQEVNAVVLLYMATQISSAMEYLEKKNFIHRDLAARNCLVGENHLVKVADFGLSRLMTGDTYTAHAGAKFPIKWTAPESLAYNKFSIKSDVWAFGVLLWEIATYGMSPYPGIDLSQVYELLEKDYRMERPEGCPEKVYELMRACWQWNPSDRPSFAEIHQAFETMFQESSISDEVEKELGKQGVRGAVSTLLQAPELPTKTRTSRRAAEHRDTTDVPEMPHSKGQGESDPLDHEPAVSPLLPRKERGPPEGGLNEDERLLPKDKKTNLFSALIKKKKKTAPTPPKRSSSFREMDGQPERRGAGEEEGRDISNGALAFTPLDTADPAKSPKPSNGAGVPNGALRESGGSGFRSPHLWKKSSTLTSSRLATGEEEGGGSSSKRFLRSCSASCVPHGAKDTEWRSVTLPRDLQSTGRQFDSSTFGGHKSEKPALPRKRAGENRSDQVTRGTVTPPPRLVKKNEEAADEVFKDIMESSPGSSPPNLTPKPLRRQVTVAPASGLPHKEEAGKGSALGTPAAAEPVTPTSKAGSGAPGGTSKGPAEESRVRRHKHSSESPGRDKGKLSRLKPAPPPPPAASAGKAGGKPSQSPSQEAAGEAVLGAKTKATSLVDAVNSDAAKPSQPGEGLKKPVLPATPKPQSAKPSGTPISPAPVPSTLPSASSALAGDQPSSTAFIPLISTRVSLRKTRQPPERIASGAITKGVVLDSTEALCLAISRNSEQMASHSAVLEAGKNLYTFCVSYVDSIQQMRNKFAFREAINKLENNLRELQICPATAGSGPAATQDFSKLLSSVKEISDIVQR
T3 sequence (P42684 whole entry): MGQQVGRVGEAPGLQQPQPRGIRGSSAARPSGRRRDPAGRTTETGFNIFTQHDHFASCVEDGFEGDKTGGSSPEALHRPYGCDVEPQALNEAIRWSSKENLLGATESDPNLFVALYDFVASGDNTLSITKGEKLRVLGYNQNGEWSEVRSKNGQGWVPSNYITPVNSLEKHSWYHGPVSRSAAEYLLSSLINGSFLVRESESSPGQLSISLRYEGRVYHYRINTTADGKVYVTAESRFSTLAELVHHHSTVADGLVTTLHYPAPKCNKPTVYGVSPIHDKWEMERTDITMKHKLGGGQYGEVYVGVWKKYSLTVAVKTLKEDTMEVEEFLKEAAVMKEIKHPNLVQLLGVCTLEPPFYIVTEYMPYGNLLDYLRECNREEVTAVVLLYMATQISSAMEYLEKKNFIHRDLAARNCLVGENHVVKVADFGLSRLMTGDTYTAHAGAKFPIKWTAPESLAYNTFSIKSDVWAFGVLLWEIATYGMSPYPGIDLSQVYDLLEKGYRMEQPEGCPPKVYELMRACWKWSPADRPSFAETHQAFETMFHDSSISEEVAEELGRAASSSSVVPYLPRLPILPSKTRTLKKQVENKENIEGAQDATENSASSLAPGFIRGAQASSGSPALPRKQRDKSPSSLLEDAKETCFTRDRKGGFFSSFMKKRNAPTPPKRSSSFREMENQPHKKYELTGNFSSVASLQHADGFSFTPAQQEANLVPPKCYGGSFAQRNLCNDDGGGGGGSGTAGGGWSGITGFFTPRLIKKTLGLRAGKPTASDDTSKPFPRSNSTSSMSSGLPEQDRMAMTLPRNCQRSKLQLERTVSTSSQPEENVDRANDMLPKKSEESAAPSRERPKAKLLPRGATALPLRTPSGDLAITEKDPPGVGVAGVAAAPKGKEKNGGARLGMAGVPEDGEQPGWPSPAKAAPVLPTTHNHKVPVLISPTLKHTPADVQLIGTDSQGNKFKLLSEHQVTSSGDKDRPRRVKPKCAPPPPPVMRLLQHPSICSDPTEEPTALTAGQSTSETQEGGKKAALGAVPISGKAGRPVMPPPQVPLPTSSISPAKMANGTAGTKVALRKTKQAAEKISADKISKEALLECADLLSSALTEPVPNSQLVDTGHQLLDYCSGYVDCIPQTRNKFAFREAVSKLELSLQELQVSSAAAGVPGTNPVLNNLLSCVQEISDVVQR
T2 sequence (Q2M2I8 whole entry): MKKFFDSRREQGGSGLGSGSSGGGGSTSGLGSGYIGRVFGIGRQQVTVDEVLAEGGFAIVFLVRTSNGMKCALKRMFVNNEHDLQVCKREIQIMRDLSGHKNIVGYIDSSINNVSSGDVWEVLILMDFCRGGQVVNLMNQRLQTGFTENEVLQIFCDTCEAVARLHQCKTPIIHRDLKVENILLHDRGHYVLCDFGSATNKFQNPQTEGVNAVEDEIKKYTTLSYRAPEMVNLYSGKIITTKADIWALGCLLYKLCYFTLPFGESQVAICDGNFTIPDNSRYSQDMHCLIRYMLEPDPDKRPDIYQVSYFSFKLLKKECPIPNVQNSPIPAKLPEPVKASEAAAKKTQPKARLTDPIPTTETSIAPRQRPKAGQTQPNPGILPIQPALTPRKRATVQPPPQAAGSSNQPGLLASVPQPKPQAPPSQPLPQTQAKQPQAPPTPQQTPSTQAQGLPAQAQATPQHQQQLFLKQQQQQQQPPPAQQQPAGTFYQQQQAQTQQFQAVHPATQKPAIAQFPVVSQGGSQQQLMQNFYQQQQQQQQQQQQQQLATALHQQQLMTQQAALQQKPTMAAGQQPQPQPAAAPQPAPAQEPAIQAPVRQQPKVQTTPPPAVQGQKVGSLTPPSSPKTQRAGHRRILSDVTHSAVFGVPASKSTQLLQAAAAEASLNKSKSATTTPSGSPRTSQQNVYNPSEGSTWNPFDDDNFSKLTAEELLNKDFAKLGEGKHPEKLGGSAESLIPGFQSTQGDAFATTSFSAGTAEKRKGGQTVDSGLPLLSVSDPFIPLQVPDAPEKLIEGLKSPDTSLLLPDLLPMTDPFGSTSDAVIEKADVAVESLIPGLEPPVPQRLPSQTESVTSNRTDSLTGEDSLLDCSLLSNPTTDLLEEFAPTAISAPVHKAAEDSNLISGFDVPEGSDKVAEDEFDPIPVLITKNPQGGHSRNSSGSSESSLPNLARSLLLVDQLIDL

As for `C[C@H]1CC[C@@H](C(=O)Nc2ccccc2)CN1c1cc(-c2ccc3c(N)n[nH]c3c2)nc(N)n1` [GSK2283293_KCGS], the CATDS at ACOX1, at AAK1, at ABL1, on ABL2 and at ACAD11 was 0 in each case.

Consider `CC(C)(C)OC(=O)NC1CCCN(c2cc(-c3ccc4c(N)n[nH]c4c3)nc(N)n2)C1` (stereo not drawn) [GSK2286096A], for which the CATDS at ACOX1, at AAK1, at ABL1, at ABL2 and on ACAD11 was 0 each time.

On to `O=c1cc(N2CCOCC2)nc2n(Cc3cccc(Cl)c3Cl)ccn12` [GSK2286295A], for which the CATDS on ACOX1, at AAK1, on ABL1, on ABL2 and at ACAD11 was 0 each time.

Take `Nc1nc(-c2ccc3c(N)n[nH]c3c2)cc(N2CCCC(NC(=O)c3ccccc3)C2)n1` (stereo not drawn) [GSK2286775B]: the CATDS is 0 at ACOX1; 0.05355 on AAK1; 0 on ABL1; 0 at ABL2; 0 on ACAD11.

`Cc1c(Cn2ccn3c(=O)cc(N4CCOCC4)nc23)cccc1C(F)(F)F` [GSK2289044B]: the CATDS on ACOX1, on AAK1, on ABL1, at ABL2 and at ACAD11 was 0 each time.

On to `COc1ncc(-c2cc(-c3ncc(CN4C[C@@H](C)O[C@@H](C)C4)o3)c3cn[nH]c3c2)cc1NS(C)(=O)=O` [GSK2292767], for which the CATDS at ACOX1, on AAK1, at ABL1, at ABL2 and at ACAD11 was 0 in each case.

Take `O=c1cc(N2CCOCC2)nc2n(Cc3cccc(Cl)c3)ccn12` [GSK2296823A]: the CATDS at ACOX1, on AAK1, on ABL1, on ABL2 and on ACAD11 was 0 each time.

For the compound `O=c1cc(N2CCOCC2)nc2n(Cc3ccc(F)c(Cl)c3)ccn12` [GSK2297099A], the CATDS at ACOX1, on AAK1, on ABL1, on ABL2 and on ACAD11 was 0 each time.

For `O=c1cc(N2CCOCC2)nc2n(Cc3ccccc3F)ccn12` [GSK2297428A], the CATDS on ACOX1, at AAK1, on ABL1, at ABL2 and at ACAD11 was 0 each time.

Consider `O=c1cc(N2CCOCC2)nc2n(Cc3cccc(F)c3)ccn12` [GSK2297430A], for which the CATDS at ACOX1, at AAK1, at ABL1, at ABL2 and at ACAD11 was 0 in each case.

Turning to `Cc1cccc(Cn2ccn3c(=O)cc(N4CCOCC4)nc23)c1` [GSK2297542A], the CATDS at ACOX1, on AAK1, at ABL1, on ABL2 and on ACAD11 was 0 in each case.

For the compound `O=c1cc(N2CCOCC2)nc2n(Cc3cccc(C(F)(F)F)c3)ccn12` [GSK2297543A], the CATDS at ACOX1, at AAK1, on ABL1, on ABL2 and at ACAD11 was 0 each time.

On to `CNc1nc(-c2ccc3c(N)n[nH]c3c2)cc(N2C[C@@H](C(=O)Nc3ccccc3)CC[C@H]2C)n1` [GSK2298859A], for which the CATDS at ACOX1, at AAK1, on ABL1, at ABL2 and at ACAD11 was 0 throughout.

On to `O=c1cc(N2CCOCC2)nc2n(Cc3cccc(Cl)c3Cl)c3ccccc3n12` [GSK2299009A], for which the CATDS at ACOX1, on AAK1, on ABL1, at ABL2 and at ACAD11 was 0 throughout.

In the case of `Cc1c(Cn2c3ccccc3n3c(=O)cc(N4CCOCC4)nc23)cccc1C(F)(F)F` [GSK2306394A], the CATDS on ACOX1, at AAK1, at ABL1, at ABL2 and at ACAD11 was 0 in each case.

Turning to `Cc1c(Cn2c(C)c(C)n3c(=O)cc(N4CCOCC4)nc23)cccc1C(F)(F)F` [GSK2328680_KCGS], the CATDS on ACOX1, on AAK1, on ABL1, at ABL2 and at ACAD11 was 0 throughout.

On to `O=c1cc(N2CCOCC2)nc2n(Cc3cccc4ccccc34)ccn12` [GSK2333389A], for which the CATDS on ACOX1, at AAK1, at ABL1, on ABL2 and on ACAD11 was 0 in each case.

Take `Cc1cn2c(=O)cc(N3CCOCC3)nc2n1Cc1cccc(Cl)c1Cl` [GSK2334006A]: the CATDS on ACOX1, on AAK1, at ABL1, on ABL2 and at ACAD11 was 0 in each case.

On to `Cc1c(Cn2ccn3c(=O)nc(N4CCOCC4)cc23)cccc1C(F)(F)F` [GSK2336394A], for which the CATDS at ACOX1, at AAK1, at ABL1, at ABL2 and at ACAD11 was 0 each time.

As to `Cc1nn2c(=O)cc(N3CCOCC3)nc2n1Cc1cccc(Cl)c1Cl` [GSK2342769A], the CATDS at ACOX1, at AAK1, at ABL1, at ABL2 and on ACAD11 was 0 in each case.

Take `Cc1c(Cn2c(C)nn3c(=O)cc(N4CCOC(C)C4)nc23)cccc1C(F)(F)F` (stereo not drawn) [GSK2344444A]: the CATDS at ACOX1, at AAK1, at ABL1, on ABL2 and at ACAD11 was 0 each time.

On to `CSc1nn2c(=O)cc(N3CCOCC3)nc2n1Cc1cccc(Cl)c1Cl` [GSK2347225A], for which the CATDS on ACOX1, at AAK1, at ABL1, at ABL2 and on ACAD11 was 0 throughout.

Take `O=c1cc(N2CCOCC2)nc2n(Cc3cccc(Cl)c3Cl)c(C3CC3)nn12` [GSK2358994A]: the CATDS at ACOX1, on AAK1, on ABL1, on ABL2 and on ACAD11 was 0 throughout.

Consider `CSc1nn2c(=O)cc(N3CCOCC3)nc2n1Cc1cccc(C(F)(F)F)c1C` [GSK2363608B], for which the CATDS on ACOX1, at AAK1, at ABL1, on ABL2 and at ACAD11 was 0 throughout.
